IC50 and Ki data for three compounds are collected here from US20230091561A1, “METHODS OF TREATING PRIMARY PROGRESSIVE MULTIPLE SCLEROSIS USING AN INHIBITOR OF BRUTON'S TYROSINE KINASE” (Genentech, Inc., priority 2020, published 2023).

The structures appear in SMILES notation. Where two headings read alike, the source gives them in different places.

Experiment [1] deals with T1, CDK8/cycC (Homo sapiens, UniProt P49336).
T1 construct: purchased
In words: Kinase selectivity IC50, CDK8/cycC. Type of experiment: biochemical. The conditions noted are these: unpublished.

The target in experiment [2] is FLT3 (Homo sapiens, UniProt P36888). In words: Kinase selectivity IC50, FLT3.
The target of experiment [3] is CSK (Homo sapiens, UniProt P41240). The experiment in a line: Kinase selectivity IC50, CSK.
CSK, sequence (P41240 whole entry): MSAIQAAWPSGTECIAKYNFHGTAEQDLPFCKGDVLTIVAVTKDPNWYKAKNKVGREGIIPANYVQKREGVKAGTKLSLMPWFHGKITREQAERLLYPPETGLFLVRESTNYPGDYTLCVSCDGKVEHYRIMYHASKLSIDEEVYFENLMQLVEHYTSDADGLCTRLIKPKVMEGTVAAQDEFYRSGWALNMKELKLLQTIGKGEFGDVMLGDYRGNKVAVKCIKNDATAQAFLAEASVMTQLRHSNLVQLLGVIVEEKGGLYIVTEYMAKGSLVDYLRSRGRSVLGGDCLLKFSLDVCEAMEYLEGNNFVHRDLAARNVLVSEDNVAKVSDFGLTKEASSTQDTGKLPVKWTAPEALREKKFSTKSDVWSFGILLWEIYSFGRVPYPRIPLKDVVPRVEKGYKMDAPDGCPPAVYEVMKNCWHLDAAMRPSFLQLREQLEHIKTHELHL
Experiment [4] has as its target LCK (Homo sapiens, UniProt P06239). In words: Kinase selectivity IC50, LCK.
In experiment [5] the target is MLK2 (Homo sapiens, UniProt Q02779). The experiment in a line: Kinase selectivity IC50, MLK2.
MLK2, sequence (Q02779 whole entry): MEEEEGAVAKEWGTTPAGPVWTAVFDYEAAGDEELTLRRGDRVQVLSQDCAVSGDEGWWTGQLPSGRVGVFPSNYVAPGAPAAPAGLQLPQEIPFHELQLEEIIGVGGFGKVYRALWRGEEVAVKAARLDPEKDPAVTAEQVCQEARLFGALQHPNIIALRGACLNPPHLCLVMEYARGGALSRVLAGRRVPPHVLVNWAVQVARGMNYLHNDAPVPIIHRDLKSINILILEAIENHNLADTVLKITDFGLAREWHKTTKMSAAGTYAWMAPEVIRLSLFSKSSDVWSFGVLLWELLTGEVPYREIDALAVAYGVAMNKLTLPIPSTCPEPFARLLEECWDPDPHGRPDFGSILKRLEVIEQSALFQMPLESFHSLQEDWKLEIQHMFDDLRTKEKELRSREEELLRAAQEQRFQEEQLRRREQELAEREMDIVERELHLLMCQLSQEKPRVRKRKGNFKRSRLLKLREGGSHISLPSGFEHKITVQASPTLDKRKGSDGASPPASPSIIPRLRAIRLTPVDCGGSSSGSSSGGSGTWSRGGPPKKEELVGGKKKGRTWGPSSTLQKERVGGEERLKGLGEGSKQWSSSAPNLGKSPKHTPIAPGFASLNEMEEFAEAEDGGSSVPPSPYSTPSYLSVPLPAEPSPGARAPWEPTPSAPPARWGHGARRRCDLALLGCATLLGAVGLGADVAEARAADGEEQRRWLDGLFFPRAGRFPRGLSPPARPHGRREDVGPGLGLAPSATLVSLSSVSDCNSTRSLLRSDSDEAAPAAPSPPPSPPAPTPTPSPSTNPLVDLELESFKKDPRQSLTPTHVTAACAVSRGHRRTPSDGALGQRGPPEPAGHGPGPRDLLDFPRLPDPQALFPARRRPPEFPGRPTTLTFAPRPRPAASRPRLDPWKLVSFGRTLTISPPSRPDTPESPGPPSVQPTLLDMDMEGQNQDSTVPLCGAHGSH
In experiment [6] the target is RET (Homo sapiens, UniProt P07949). The experiment in a line: Kinase selectivity IC50, RET.
The target in experiment [7] is RIPK2 (Homo sapiens, UniProt O43353). In words: Kinase selectivity IC50, RIPK2.
RIPK2, sequence (O43353 whole entry): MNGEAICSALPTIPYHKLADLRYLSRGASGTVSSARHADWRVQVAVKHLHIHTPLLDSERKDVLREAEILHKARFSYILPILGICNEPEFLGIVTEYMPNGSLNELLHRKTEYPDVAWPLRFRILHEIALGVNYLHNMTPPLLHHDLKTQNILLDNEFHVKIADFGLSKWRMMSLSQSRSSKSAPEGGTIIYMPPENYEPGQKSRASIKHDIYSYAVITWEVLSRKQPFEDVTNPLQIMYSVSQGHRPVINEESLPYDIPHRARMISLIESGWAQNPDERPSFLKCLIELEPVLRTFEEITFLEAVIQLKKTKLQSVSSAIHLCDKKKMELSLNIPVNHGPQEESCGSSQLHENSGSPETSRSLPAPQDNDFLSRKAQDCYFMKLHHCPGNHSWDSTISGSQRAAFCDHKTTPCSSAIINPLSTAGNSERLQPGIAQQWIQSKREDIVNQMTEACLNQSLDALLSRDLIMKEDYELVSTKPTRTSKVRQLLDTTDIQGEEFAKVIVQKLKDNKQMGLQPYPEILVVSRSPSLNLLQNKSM
Experiment [8] addresses T2, Fgr (Homo sapiens, UniProt P09769). The experiment in a line: Kinase selectivity IC50, Fgr.
The target in experiment [9] is CK1e1 (Homo sapiens, UniProt P49674). The experiment in a line: Kinase selectivity IC50, CK1e1.
Experiment [10] concerns the target FGFR1 (Homo sapiens, UniProt P11362). In words: Kinase selectivity IC50, FGFR1.
In experiment [11] the target is MKNK2 (Homo sapiens, UniProt Q9HBH9). In words: Kinase selectivity IC50, MKNK2.
In experiment [12] the target is BRK (Homo sapiens, UniProt Q13882). The experiment in a line: Kinase selectivity IC50, BRK.
BRK, sequence (Q13882 whole entry): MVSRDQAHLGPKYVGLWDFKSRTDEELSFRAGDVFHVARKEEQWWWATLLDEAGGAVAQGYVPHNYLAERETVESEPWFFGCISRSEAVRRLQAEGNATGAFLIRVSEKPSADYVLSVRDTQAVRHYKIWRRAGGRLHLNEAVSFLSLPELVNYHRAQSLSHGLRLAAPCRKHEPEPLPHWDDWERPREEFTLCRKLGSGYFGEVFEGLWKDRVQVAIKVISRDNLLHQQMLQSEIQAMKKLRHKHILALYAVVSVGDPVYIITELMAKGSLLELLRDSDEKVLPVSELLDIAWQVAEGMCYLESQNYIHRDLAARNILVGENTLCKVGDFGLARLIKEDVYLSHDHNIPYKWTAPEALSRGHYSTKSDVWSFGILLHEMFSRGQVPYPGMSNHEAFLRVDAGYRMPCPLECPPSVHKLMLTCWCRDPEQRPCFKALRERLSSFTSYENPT
Experiment [13] addresses T3, Src (Homo sapiens, UniProt P12931). Also noted: purchased. The note with it: footnote a (Crawford et al.); cited from earlier work.
Experiment [14] addresses T2, Fgr. Further details: purchased. The note with it: footnote a (Crawford et al.); cited from earlier work.
In experiment [15] the target is ERBB2 (Homo sapiens, UniProt P04626). In words: Kinase selectivity IC50, ERBB2.
In experiment [16] the target is LYN (Homo sapiens, UniProt P07948). In words: Kinase selectivity IC50, LYN.
For experiment [17], the target named is YES (Homo sapiens, UniProt P07947). In words: Kinase selectivity IC50, YES.
For experiment [18], the target named is TXK (Homo sapiens, UniProt P42681). The experiment in a line: Kinase selectivity IC50, TXK.
In experiment [19] the target is FRK (Homo sapiens, UniProt P42685). In words: Kinase selectivity IC50, FRK.
Experiment [20] addresses BLK (Homo sapiens, UniProt P51451). In words: Kinase selectivity IC50, BLK.
Experiment [21] addresses TNK2 (Homo sapiens, UniProt Q07912). The experiment in a line: Kinase selectivity IC50, TNK2.
Experiment [22] deals with SRM (Homo sapiens, UniProt Q9H3Y6). The experiment in a line: Kinase selectivity IC50, SRM.
The target of experiment [23] is T4, BMX (Homo sapiens, UniProt P51813). The experiment in a line: Covalent reaction (kinact/Ki), real-time competition with a fluorescent active site ligand, BMX.
T4 sequence (P51813 whole entry): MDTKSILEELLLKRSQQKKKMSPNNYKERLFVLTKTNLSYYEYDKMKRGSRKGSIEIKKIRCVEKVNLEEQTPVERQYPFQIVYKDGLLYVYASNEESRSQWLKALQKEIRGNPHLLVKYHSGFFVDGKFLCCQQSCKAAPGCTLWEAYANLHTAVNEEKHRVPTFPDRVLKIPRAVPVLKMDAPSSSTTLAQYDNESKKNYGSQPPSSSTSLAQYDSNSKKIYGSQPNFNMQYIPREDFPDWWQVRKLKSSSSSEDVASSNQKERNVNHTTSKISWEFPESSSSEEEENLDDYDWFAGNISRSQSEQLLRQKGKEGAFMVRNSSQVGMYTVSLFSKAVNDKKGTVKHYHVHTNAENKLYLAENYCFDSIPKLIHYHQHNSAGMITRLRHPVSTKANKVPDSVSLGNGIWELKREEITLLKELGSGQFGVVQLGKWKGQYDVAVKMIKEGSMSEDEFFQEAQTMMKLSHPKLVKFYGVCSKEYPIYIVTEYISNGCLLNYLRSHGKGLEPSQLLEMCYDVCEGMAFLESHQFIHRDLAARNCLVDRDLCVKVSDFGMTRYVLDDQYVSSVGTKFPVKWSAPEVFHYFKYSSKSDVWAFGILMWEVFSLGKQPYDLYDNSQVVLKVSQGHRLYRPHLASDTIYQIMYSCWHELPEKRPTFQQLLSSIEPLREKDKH
In experiment [24] the target is T4, BMX. In words: Kinase selectivity IC50, BMX.
For experiment [25], the target named is HCK (Homo sapiens, UniProt P08631). In words: Kinase selectivity IC50, HCK.
The target in experiment [26] is T3, Src. In words: Kinase selectivity IC50, Src.

T2 sequence (P09769 whole entry): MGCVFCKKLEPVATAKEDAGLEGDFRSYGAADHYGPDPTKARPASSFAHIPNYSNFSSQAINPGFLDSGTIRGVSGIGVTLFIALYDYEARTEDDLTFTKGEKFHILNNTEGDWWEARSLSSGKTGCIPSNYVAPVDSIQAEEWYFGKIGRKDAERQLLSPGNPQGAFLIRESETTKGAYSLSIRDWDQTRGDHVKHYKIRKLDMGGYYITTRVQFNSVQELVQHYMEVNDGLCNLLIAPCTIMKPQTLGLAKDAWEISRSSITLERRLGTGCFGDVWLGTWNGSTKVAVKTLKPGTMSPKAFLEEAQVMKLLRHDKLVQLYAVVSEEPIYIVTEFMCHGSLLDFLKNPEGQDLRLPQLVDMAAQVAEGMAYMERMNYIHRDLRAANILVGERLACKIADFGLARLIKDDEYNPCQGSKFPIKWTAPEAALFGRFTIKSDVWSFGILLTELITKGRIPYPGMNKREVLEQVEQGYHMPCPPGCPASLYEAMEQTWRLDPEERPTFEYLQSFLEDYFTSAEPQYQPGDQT
T3 sequence (P12931 whole entry): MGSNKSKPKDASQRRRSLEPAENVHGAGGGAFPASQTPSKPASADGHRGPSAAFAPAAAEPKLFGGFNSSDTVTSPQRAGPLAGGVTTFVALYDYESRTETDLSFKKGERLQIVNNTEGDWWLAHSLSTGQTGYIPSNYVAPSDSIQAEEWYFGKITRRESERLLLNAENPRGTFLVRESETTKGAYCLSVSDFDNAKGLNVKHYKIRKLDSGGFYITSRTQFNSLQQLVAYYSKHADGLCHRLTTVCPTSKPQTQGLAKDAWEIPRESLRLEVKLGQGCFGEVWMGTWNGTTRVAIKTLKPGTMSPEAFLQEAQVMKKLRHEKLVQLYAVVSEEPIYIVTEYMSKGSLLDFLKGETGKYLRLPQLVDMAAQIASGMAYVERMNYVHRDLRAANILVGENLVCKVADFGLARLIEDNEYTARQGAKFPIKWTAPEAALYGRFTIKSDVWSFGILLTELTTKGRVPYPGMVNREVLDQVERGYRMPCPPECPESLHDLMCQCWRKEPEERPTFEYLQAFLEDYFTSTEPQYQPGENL
FGFR1, sequence (P11362 22-822): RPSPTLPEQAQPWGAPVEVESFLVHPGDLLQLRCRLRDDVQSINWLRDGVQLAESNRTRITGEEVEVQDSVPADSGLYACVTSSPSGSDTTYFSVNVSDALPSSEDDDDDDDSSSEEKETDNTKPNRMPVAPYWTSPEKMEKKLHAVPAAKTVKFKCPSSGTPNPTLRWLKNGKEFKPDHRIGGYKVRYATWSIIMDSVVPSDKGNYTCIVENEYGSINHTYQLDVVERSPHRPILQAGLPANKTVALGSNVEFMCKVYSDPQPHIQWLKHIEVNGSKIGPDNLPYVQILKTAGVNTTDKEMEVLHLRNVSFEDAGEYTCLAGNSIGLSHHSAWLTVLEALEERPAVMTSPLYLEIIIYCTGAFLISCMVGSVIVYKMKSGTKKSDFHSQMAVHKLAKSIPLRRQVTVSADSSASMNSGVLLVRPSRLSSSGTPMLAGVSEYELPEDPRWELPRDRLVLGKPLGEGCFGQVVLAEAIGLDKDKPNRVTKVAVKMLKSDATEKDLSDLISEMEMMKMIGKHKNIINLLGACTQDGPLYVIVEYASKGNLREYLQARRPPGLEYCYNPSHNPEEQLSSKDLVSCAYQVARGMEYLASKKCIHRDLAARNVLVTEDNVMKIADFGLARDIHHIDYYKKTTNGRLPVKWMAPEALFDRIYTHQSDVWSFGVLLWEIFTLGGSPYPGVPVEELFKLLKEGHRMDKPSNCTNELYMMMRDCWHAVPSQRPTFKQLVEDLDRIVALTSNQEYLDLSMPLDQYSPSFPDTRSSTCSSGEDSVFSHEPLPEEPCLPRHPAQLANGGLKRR

In general, IC50 refers to the concentration that inhibits the measured activity by half. As for `C=CC(=O)N1CCC(CNc2ncnc(N)c2-c2ccc(Oc3ccccc3)cc2)CC1` [Evobrutinib], the IC50 was found to be 3500 nM in experiment [1]; 2250 nM in experiment [2]; 7820 nM in [3]; 3800 nM in [4]; 3980 nM in [5]; 8630 nM in experiment [6]. For the same compound, the IC50 in [7] is 4330 nM; in experiment [8] it was 2330 nM; in experiment [9] it was 1450 nM; in [10] it was 4150 nM; in experiment [11] it was 4130 nM; in experiment [12], 6020 nM.
With `C[C@H]1CN(C2COC2)CCN1c1ccc(Nc2cc(-c3ccnc(N4CCn5c(cc6c5CC(C)(C)C6)C4=O)c3CO)cn(C)c2=O)nc1` [Fenebrutinib], the results for the concentration for half-maximal inhibition (IC50) in experiment [13] and in [14] were 302 nM and 387 nM, respectively.
As for `C=CC(=O)N1CCC[C@@H](n2c(=O)n(-c3ccc(Oc4ccccc4)cc3)c3c(N)nccc32)C1` [Tolebrutinib], the IC50 in experiment [15] was determined as 25 nM; in experiment [16] it was 194 nM; in experiment [3], 87 nM; in experiment [17] it was 16 nM; in [18] it was 3.9 nM; in experiment [19], 231 nM. Further, the IC50 worked out at 3 nM in [20]; 847 nM in [21]; 116 nM in [22]; 125 nM in experiment [7]; 33 nM in [8]; 2.5 nM in experiment [24]. The values for the IC50 in experiment [25], in experiment [26] and in [12] were 91 nM, 54 nM and 44 nM, respectively. Further, the Ki in [23] was 42 nM.
